Our source for the IC50 values is patent publication US11078168B2, “Substituted N-hydroxyamidinoheterocycles as modulators of indoleamine 2,3-dioxygenase” (PHENEX DISCOVERY VERWALTUNGS-GMBH, priority 2016, dated 2021).

Molecules are shown by their SMILES. Where only a bound is given, the exact number is not on record here.

T1 sequence (P14902 whole entry): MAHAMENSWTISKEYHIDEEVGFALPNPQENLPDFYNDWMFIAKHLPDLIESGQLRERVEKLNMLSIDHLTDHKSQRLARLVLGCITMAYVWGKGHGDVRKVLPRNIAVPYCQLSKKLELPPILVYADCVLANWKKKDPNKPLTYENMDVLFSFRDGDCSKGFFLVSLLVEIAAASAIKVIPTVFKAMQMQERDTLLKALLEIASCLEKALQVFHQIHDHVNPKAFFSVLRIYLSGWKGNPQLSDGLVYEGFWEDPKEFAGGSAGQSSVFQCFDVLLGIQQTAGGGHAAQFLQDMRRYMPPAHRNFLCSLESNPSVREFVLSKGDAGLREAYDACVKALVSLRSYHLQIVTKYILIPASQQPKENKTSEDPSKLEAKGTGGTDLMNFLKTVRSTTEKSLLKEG

The experiment addresses T1, Indoleamine 2,3-dioxygenase (Homo sapiens, UniProt P14902).
T1 construct: endogenous in cells; host or cells: SKOV-3 (ATCC HTB-77), stimulated with interferon gamma
The experiment can be described thus: SKOV-3 cellular Indoleamine 2,3-dioxygenase assay. To be noted: SKOV-3 cells, 50 ng/ml Interferon gamma, 100 μM L-Tryptophan, 24 hours, N-Formylkynurenin fluorescence detection; read-out: cell based activity. The procedure: SKOV-3 cellular Indoleamine 2,3-dioxygenase assay
SKOV-3 cells were obtained from the American Type Culture Collection (ATCC® HTB-77™) and maintained in McCoy's medium (Pan Biotech) supplemented with 10% fetal bovine serum and 1% Penicilin/Streptomycin. Cells were kept at 37° C. in a humidified incubator with 5% CO2. For assay preparation, cells were seeded at a density of 2*10^5/ml into black clear bottom 96 well plates in 100 μl medium/well supplemented with 50 ng/ml Interferon gamma (eBioscience, Thermo Fisher Scientific). After cells fully adhered to the plate, dilution series of compounds were added in medium containing additional L-Tryptophan to a final L-Tryptophan concentration of 100 μM. The cells were incubated for 24 hours. Detection of produced N-Formylkynurenin was performed by addition of 3-Methylpiperidine to a final concentration of 200 mM. The plates were sealed and heated to 65° C. for 20 minutes in a water bath. After cooling the fluorescence of each well was recorded with a Victor™X4 (PerkinElmer) plate reader at an emission wavelength of 535 nm and excitation at 405 nm (Tomek et al.; Anal Bioanal Chem (2013) 405:2515-2524., Tomek et al.; Biochim Biophys Acta. 2015 September; 1850(9):1772-80).
On to `CC(C)(C(=O)O)C(=O)NCCOc1nonc1C(=NO)Nc1ccc(F)c(Cl)c1` [9/11], for which the IC50 was above 1 µM. The figure for `O=C(NCCOc1nonc1C(=NO)Nc1ccc(F)c(Cl)c1)C1(O)CC1` [9/12] is 0.1 to 1 µM; for `O=C(O)c1cccc(C(=O)NCCOc2nonc2C(=NO)Nc2ccc(F)c(Cl)c2)c1` [9/13] it is above 1 µM.

As to `NS(=O)(=O)CC(=O)NCCOc1nonc1C(=NO)Nc1ccc(F)c(Cl)c1` [9/14], the IC50 is 0.1 to 1 µM.

As for `CS(=O)(=O)CC(=O)NCCOc1nonc1C(=NO)Nc1ccc(F)c(Cl)c1` [9/15], the IC50 was below 0.1 µM. With `CC(C)(C)OC(=O)NC1(C(=O)NCCOc2nonc2C(=NO)Nc2ccc(F)c(Cl)c2)COC1` [9/16], the IC50 was in the range of 0.1 to 1 µM. On to `CNC(=O)C(=O)NCCOc1nonc1C(=NO)Nc1ccc(F)c(Cl)c1` [9/17], for which the IC50 lay in the range of 0.1 to 1 µM. For `CC(C)(C)OC(=O)NC1(C(=O)NCCOc2nonc2C(=NO)Nc2ccc(F)c(Cl)c2)CC1(F)F` (centres unmarked) [9/18], the IC50 is above 1 µM. For `CN(C)C(=O)C(=O)NCCOc1nonc1C(=NO)Nc1ccc(F)c(Cl)c1` [9/19], the IC50 was 0.1 to 1 µM. The figure for `NS(=O)(=O)CC(=O)NCCOc1nonc1C(=NO)Nc1cccc(C(F)(F)F)c1` [9/20] is 0.1 to 1 µM; for `NS(=O)(=O)CC(=O)NCCOc1nonc1C(=NO)Nc1ccc(F)c(C(F)(F)F)c1` [9/21] it is below 0.1 µM; for `CN(CCOc1nonc1C(=NO)Nc1ccc(F)c(Cl)c1)C(=O)CS(N)(=O)=O` [9/22] it is 0.1 to 1 µM. `CN1CCN(CCOc2nonc2C(=NO)Nc2ccc(F)c(Cl)c2)CC1` [10/1, N-(3-Chloro-4-fluorophenyl)-N′-hydroxy-4-(2-(4-methylpiperazin-1-yl)ethoxy)-1,2,5-oxadiazole-3-carboximidamide]: the IC50 was 0.1 to 1 µM. In the case of `CS(=O)(=O)CCCOc1nonc1C(=NO)Nc1ccc(F)c(Cl)c1` [20/1, N-(3-Chloro-4-fluorophenyl)-N′-hydroxy-4-(3-(methylsulfonyl)propoxy)-1,2,5-oxadiazole-3-carboximidamide], the IC50 is 0.1 to 1 µM. Regarding `CS(=O)(=O)CCS(=O)(=O)NCCSc1nonc1C(=NO)Nc1ccc(F)c(C(F)F)c1` [100/1, N-(3-(Difluoromethyl)-4-fluorophenyl)-N′-hydroxy-4-((2-((2-(methylsulfonyl)ethyl)sulfonamido)ethyl)thio)-1,2,5-oxadiazole-3-carboximidamide], the IC50 was below 0.1 µM. Take `NS(=O)(=O)NCCSc1nonc1C(=NO)Nc1ccc(F)c(Cl)c1` [101/1, N-(3-Chloro-4-fluorophenyl)-N′-hydroxy-4-((2-(sulfamoylamino)ethyl)thio)-1,2,5-oxadiazole-3-carboximidamide]: the IC50 was below 0.1 µM. `Nc1c(NCCSc2nonc2C(=NO)Nc2cccc(C(F)F)c2)c(=O)c1=O` [102/1]: the IC50 was below 0.1 µM. As to `Nc1c(NCCSc2nsnc2C(=NO)Nc2ccc(F)c(Cl)c2)c(=O)c1=O` [102/2], the IC50 lay in the range of 0.1 to 1 µM. The figure for `CC(C)(O)C(O)C(=O)NCCSc1nonc1C(=NO)Nc1ccc(F)c(C(F)F)c1` (centres unmarked) [107/1] is below 0.1 µM; for `NS(=O)(=O)CC(=O)NCCSc1nonc1C(=NO)Nc1cc(F)cc(C(F)F)c1` [107/2] it is below 0.1 µM. As for `N#Cc1cc(N/C(=N\O)c2nonc2SCCNC(=O)CS(N)(=O)=O)ccc1F` [107/3], the IC50 is below 0.1 µM. As for `NS(=O)(=O)CC(=O)NCCSc1nonc1/C(=N/O)Nc1cccc(Br)c1` [107/4], the IC50 is below 0.1 µM. For `NS(=O)(=O)CC(=O)NCCSc1nonc1/C(=N/O)Nc1cccc(Cl)c1` [107/5], the IC50 is below 0.1 µM. For `CC(C)(O)C(=O)NCCSc1nonc1C(=NO)Nc1ccc(F)c(C(F)F)c1` [107/6], the IC50 was below 0.1 µM. Consider `O=C(NCCSc1nonc1C(=NO)Nc1ccc(F)c(C(F)F)c1)C1(O)CCC1` [107/7], for which the IC50 is below 0.1 µM. Consider `O=C(NCCSc1nonc1/C(=N/O)Nc1ccc(F)c(C(F)F)c1)C1CS(=O)(=O)C1` [107/8], for which the IC50 is below 0.1 µM. As for `Cc1cccc(NC(=NO)c2nonc2SCCNC(=O)CS(N)(=O)=O)c1` [107/10], the IC50 was below 0.1 µM.

As to `NS(=O)(=O)CC(=O)NCCSc1nonc1C(=NO)Nc1cccc(CF)c1` [107/11], the IC50 was below 0.1 µM.

As to `N#Cc1cccc(N/C(=N\O)c2nonc2SCCNC(=O)CS(N)(=O)=O)c1` [107/12], the IC50 was below 0.1 µM. Take `N#Cc1cccc(NC(=NO)c2nonc2SCCNC(=O)CCS(N)(=O)=O)c1` [107/13]: the IC50 was below 0.1 µM. To `NS(=O)(=O)CC(=O)NCCSc1nonc1/C(=N/O)Nc1ccc(F)c(Br)c1` [107/14] belongs below 0.1 µM; to `NS(=O)(=O)CCC(=O)NCCSc1nonc1C(=NO)Nc1cccc(Cl)c1` [107/15], below 0.1 µM; to `CC(C)(O)CC(=O)NCCSc1nonc1/C(=N/O)Nc1ccc(F)c(C(F)F)c1` [107/16], below 0.1 µM. Take `N#CCC(=O)NCCSc1nonc1/C(=N/O)Nc1ccc(F)c(C(F)F)c1` [107/17]: the IC50 is below 0.1 µM. `O=C(CCCC[C@@H]1SC[C@@H]2NC(=O)N[C@@H]21)NCCSc1nonc1C(=NO)Nc1ccc(F)c(Cl)c1` [107/18]: the IC50 is below 0.1 µM.

`CC(C)(O)c1ccc(C(=O)NCCSc2nonc2C(=NO)Nc2ccc(F)c(C(F)(F)F)c2)cc1` [107/19]: the IC50 is below 0.1 µM. Turning to `O=C(NCCSc1nonc1C(=NO)Nc1ccc(F)c(C(F)F)c1)c1ccc(C(O)(C(F)(F)F)C(F)(F)F)cc1` [107/20], the IC50 was in the range of 0.1 to 1 µM. `O=C(CC(O)(C(F)(F)F)C(F)(F)F)NCCSc1nonc1C(=NO)Nc1ccc(F)c(C(F)(F)F)c1` [107/21]: the IC50 was below 0.1 µM. With `O=C(NCCSc1nonc1C(=NO)Nc1ccc(F)c(C(F)(F)F)c1)C1=NOC(C(O)(C(F)(F)F)C(F)(F)F)C1` (centres unmarked) [107/22], the IC50 is below 0.1 µM. Regarding `O=C(NCCSc1nonc1C(=NO)Nc1ccc(F)c(C(F)F)c1)c1ccc(C(F)(F)F)cc1` [107/23], the IC50 was below 0.1 µM. On to `CS(=O)(=O)c1ccc(C(=O)NCCSc2nonc2C(=NO)Nc2ccc(F)c(C(F)F)c2)cc1` [107/24], for which the IC50 is below 0.1 µM. To `N#Cc1ccc(C(=O)NCCSc2nonc2C(=NO)Nc2ccc(F)c(C(F)F)c2)cc1` [107/25] belongs below 0.1 µM; to `O=C(NCCSc1nonc1C(=NO)Nc1ccc(F)c(C(F)F)c1)c1ccc(-n2cnnc2)cc1` [107/26], 0.1 to 1 µM. For `O=C(NCCSc1nonc1C(=NO)Nc1ccc(F)c(C(F)F)c1)c1ccc(-n2cnnn2)cc1` [107/27], the IC50 is below 0.1 µM. To `N#CC1(c2ccc(C(=O)NCCSc3nonc3C(=NO)Nc3ccc(F)c(C(F)F)c3)cc2)CC1` [107/28] belongs below 0.1 µM; to `O=C(NCCSc1nonc1C(=NO)Nc1ccc(F)c(C(F)F)c1)c1ccc(C2(O)COC2)cc1` [107/29], below 0.1 µM. Consider `O=C(NCCSc1nonc1C(=NO)Nc1ccc(F)c(C(F)F)c1)c1ccc(C(O)(C(F)(F)F)C(F)(F)F)nc1` [107/30], for which the IC50 is below 0.1 µM. As to `NS(=O)(=O)CC(=O)NCCSc1nonc1/C(=N/O)Nc1ccc(F)c(C(F)(F)F)c1` [107/31], the IC50 was below 0.1 µM. For `CS(=O)(=O)CC(=O)NCCSc1nonc1/C(=N/O)Nc1ccc(F)c(C(F)F)c1` [107/32], the IC50 is below 0.1 µM. For `NS(=O)(=O)CC(=O)NCCSc1nonc1C(=NO)Nc1cc(F)c(F)c(C(F)F)c1` [107/33], the IC50 was below 0.1 µM.

With `NS(=O)(=O)CC(=O)NCCSc1nonc1C(=NO)Nc1cncc(C(F)(F)F)c1` [107/34], the IC50 is above 1 µM. Consider `NS(=O)(=O)CCC(=O)NCCSc1nonc1C(=NO)Nc1ccc(F)c(C(F)(F)F)c1` [107/35], for which the IC50 was below 0.1 µM. As for `NS(=O)(=O)CCC(=O)NCCSc1nonc1C(=NO)Nc1ccc(F)c(C(F)F)c1` [107/36], the IC50 is below 0.1 µM. As for `NC(=O)CCC(=O)NCCSc1nonc1C(=NO)Nc1ccc(F)c(C(F)F)c1` [107/37], the IC50 was below 0.1 µM.

Turning to `CS(=O)(=O)CCC(=O)NCCSc1nonc1C(=NO)Nc1ccc(F)c(C(F)F)c1` [107/38], the IC50 was below 0.1 µM.

For the molecule `CS(=O)(=O)CCC(=O)NCCSc1nonc1C(=NO)Nc1cccc(Cl)c1` [107/39], the IC50 was below 0.1 µM. On to `CS(=O)(=O)CCC(=O)NCCSc1nonc1C(=NO)Nc1cccc(Br)c1` [107/40], for which the IC50 was below 0.1 µM. `CS(=O)(=O)CCC(=O)NCCSc1nonc1/C(=N/O)Nc1ccc(F)c(Br)c1` [107/41]: the IC50 is below 0.1 µM.

Take `O=C(O)C1CN(CCSc2nonc2C(=NO)Nc2ccc(F)c(C(F)F)c2)C1` [108/1]: the IC50 is above 1 µM. As for `O=C(O)CC1CN(CCSc2nonc2C(=NO)Nc2ccc(F)c(C(F)F)c2)C1` [108/2], the IC50 lay within 0.1 to 1 µM. With `NS(=O)(=O)NCC[S+]([O-])c1nonc1C(=NO)Nc1ccc(F)c(Cl)c1` (centres unmarked) [109/1], the IC50 is above 1 µM.

Regarding `[O-][S+](c1nonc1C(=NO)Nc1ccc(F)c(Br)c1)C1CC1` (centres unmarked) [109/2], the IC50 was 0.1 to 1 µM. To `[O-][S+](CC(F)(F)F)c1nonc1C(=NO)Nc1ccc(F)c(Br)c1` (centres unmarked) [109/3] belongs above 1 µM; to `O=C(NCCSc1nonc1C(=NO)Nc1ccc(F)c(Cl)c1)c1n[nH]c(=O)[nH]1` [117/1], 0.1 to 1 µM; to `O=C(NCCSc1nonc1C(=NO)Nc1ccc(F)c(Cl)c1)c1ccnc2nn[nH]c12` [117/2], above 1 µM.
